The subject of assay [1] is BCG. The assay is described as follows: microbe, parasite or virus in culture. In kind it is cell-based, Mycobacterium bovis BCG. The conditions noted are these: for MIC: Mycobacterium tuberculosis variant bovis BCG, BCG, read-out: Liquid MIC.
Assay [2] has as its system BCG. Put plainly: microbe, parasite or virus in culture. Type of assay: cell-based, Mycobacterium bovis BCG. The conditions noted are these: for MIC: Mycobacterium tuberculosis variant bovis BCG.
Assay [3] deals with M. smegmatis. Type of assay: cell-based, Mycobacterium smegmatis. The following applies: 20 μM compound, 48 hr read, GFP fluorescence.
Assay [4] deals with BCG. In kind it is cell-based, Mycobacterium bovis BCG.
The subject of assay [5] is M. smegmatis. Put plainly: microbe, parasite or virus in culture. In kind it is cell-based, Mycobacterium smegmatis. The conditions noted are these: liquid medium.
Assay [6] relates to M. smegmatis. The assay is described as follows: MIC determination on solid agar. Type of assay: cell-based, Mycobacterium smegmatis. The conditions noted are these: M. smegmatis, 7H10 solid agar, absence of colonies, read-out: Solid MIC. The method, then:
Drugs were diluted from a 10mM stock, mixed individually in 2 mLs of molten 7H10 agar and dispensed in square partitioned petri plates. Plates were incubated at 37°C and solid MIC was determined based on absence of colonies.

The next assay relates to M. tuberculosis H37Rv. The assay is described as follows: Alamar Blue (resazurin) MIC assay. In kind it is cell-based, Mycobacterium tuberculosis. The following applies: Mycobacterium tuberculosis, liquid growth media. On the procedure:
To investigate the effects of repurposed compounds on growth of M. tuberculosis H37Rv using an Alamar Blue based MIC assay using the resazurin reagent. This assay was performed in 7H9 medium containing Middlebrook broth and 0.5% glycerol and supplemented with oleic acid, albumin, dextrose, and catalase. Clear- 96-well plates were inoculated with 100 μL of drug diluted with 90 μl of 7H9 medium and 10 μL DMSO. Serial 3-fold dilutions of each drug in 100 μL of 7H9 medium were prepared at various ranges. Growth controls containing no antibiotic and sterility controls without inoculation were also included. 200 μL of sterile deionized water was added to the outer perimeter wells to prevent evaporation during plate incubation. Plates were incubated plate at 37°C for 3–4 days. After incubation, the plates were removed and 10 μL of resazurin (0.02% w/v) was added to each well that contained bacteria. Assay plates were reincubated at 37°C for 24–48 hours and visually assessed for colour development. OD 570 nm readings were taken to provide further quantitation provide an interpretation of the dose response of the bacterium to repurposed compounds.
A general note: Alamar Blue is a resazurin reagent that responds to reducing activity.

The next assay has as its system HepG2 cells. The assay is described as follows: HepG2 cytotoxicity assay (CellTitre-Glo). The following applies: Homo sapiens, HepG2, 48 hours. Type of assay: cell-based. On the procedure: Actively growing HepG2 cells were removed from a T-175 tissue culture flask with 5 mL of Eagle’s MEM containing 10% FBS/1%NEAA/1% Penicillin and Streptomycin) and mixed with gentle pipetting. […] The cell suspension was added to 250 mL of the same medium at a final density of […]. […] Plates were allowed to incubate at 37°C at a relative humidity of 80% and 5% CO2 for 48 hours. After incubation, the plates were allowed to equilibrate at room temperature for 30 mins before 25 μL of CellTitre-Glo (Promega) reagent was added to each well using a multichannel pipette. Plates were left at room temperature for 30 mins before relative luminescence was read using a BMG Labtech POLARstar Omega plate reader.

Setting [7] is: read-out: Solid MIC, BCG, 7H10 solid agar, absence of colonies.
Where [8] appears, read: read-out: Solid MIC, BCG, solid agar, values given in mM.

The structures appear in SMILES notation. Converted amounts (≈) assume the structure as drawn. Counter-ions that a name gives are not always drawn. Like-named read-outs stand apart in the source and are kept apart here. Bounds are passed on as bounds.

Turning to `CO[C@@H]1[C@@H](O[C@@H]2O[C@H](C)[C@@H](O[C@H]3C[C@@](C)(O)[C@@H](OC(=O)CC(C)C)[C@H](C)O3)[C@H](N(C)C)[C@H]2O)[C@@H](CC=O)C[C@@H](C)[C@@H](O)/C=C/C=C/C[C@@H](C)OC(=O)C[C@H]1OC(C)=O` [Josamycin], in the assay with BCG [1], the “Liquid MIC” value was determined as 0.10 µM and the MIC amounted to 0.1 µM (≈ 0.0828 µg/mL). Besides, the MIC in the assay on BCG [2] (setting [7]) is > 0.1 mM.

With `[H]/N=C(/N)N[C@H]1[C@H](O)[C@@H](O)[C@H](O[C@@H]2O[C@@H](C)[C@](O)(C=O)[C@H]2O[C@@H]2O[C@@H](CO)[C@H](O)[C@@H](O)[C@@H]2NC)[C@@H](N/C(N)=N\[H])[C@@H]1O` [streptomycin], the “% survival” value in the assay on M. smegmatis [3] and with BCG [4] was < 25% throughout.

For the compound `O=C1NCN(c2ccccc2)C12CCN(CCCC(c1ccc(F)cc1)c1ccc(F)cc1)CC2` [Fluspirilene], the MIC in the assay on M. smegmatis [5] turned out to be 827.5 µM (≈ 394 µg/mL).

As to `CO[C@H]1/C=C/O[C@@]2(C)Oc3c(C)c(O)c4c(O)c(c(/C=N/N5CCN(C)CC5)c(O)c4c3C2=O)NC(=O)/C(C)=C\C=C\[C@H](C)[C@H](O)[C@@H](C)[C@@H](O)[C@@H](C)[C@H](OC(C)=O)[C@@H]1C` [rifampicin], the “% survival” value in the assay with M. smegmatis [3] and in the assay with BCG [4] was < 25% in each case.

Take `CN1CCc2cccc3c2[C@H]1Cc1ccc(O)c(O)c1-3` [Apomorphine]: the figures for the MIC with M. smegmatis [5] and with M. smegmatis [6] (Mycolicibacterium smegmatis) were 241.7 µM (≈ 64.6 µg/mL) and 625 µM (≈ 167 µg/mL), respectively.

What is called IC50 is the point on the concentration scale where inhibition reaches its midpoint. A low value points to greater potency in that assay. Regarding `N=C(N)c1ccc(OCCCCCOc2ccc(C(=N)N)cc2)cc1` [Pentamidine], the MIC with BCG [1] is 3.23 µM (≈ 1.1 µg/mL); in the assay with BCG [2] (setting [7]), 0.05 mM (≈ 17 µg/mL); in the assay on BCG [2] (setting [8]), ~0.05 mM (≈ 17 µg/mL); against M. tuberculosis H37Rv, 10.5 µM (≈ 3.58 µg/mL). This compound had a half-maximal inhibitory concentration (IC50) in the assay on HepG2 cells of 3.5 µM.

Consider `CN[C@H]1CC[C@@H](c2ccc(Cl)c(Cl)c2)c2ccccc21` [Sertraline], for which the MIC was 526.7 µM (≈ 161 µg/mL) in the assay on M. smegmatis [5] and 90 µM (≈ 27.6 µg/mL) in the assay with M. smegmatis [6] (Mycolicibacterium smegmatis).

`CN(C)CCOc1ccc(/C(=C(/CCCl)c2ccccc2)c2ccccc2)cc1` [Toremifene]: the MIC in the assay with M. smegmatis [5] came to 23.76 µM (≈ 9.65 µg/mL); in the assay on M. smegmatis [6] (Mycolicibacterium smegmatis), 62.5 µM (≈ 25.4 µg/mL).

On to `CC(NCCC(c1ccccc1)c1ccccc1)c1ccccc1` (centres unmarked) [Fendiline hydrochloride], for which the MIC with M. smegmatis [5] (Mycolicibacterium smegmatis) is 77 to 828 µM; in the assay on M. smegmatis [5], 77.57 µM; in the assay on M. smegmatis [6] (Mycolicibacterium smegmatis), 15.6 µM.

With `CN(C)CCN(Cc1ccccc1)c1ccccn1` [Tripelennamine], the MIC with BCG [1] was found to be 41.9 µM (≈ 10.7 µg/mL); with BCG [2] (setting [7]), 0.1 mM (≈ 25.5 µg/mL); in the assay with BCG [2] (setting [8]), 0.1 mM (≈ 25.5 µg/mL); against M. tuberculosis H37Rv, 49.3 µM (≈ 12.6 µg/mL). Further, in the assay on BCG [2], the “Solid MIC relative to liquid MIC” value was found to be 2 fold. Besides, the 50% inhibitory concentration (IC50) with HepG2 cells is > 250 µM.

Take `CCN(CC)CCOc1ccc(C(=C(Cl)c2ccccc2)c2ccccc2)cc1` [Clomiphene citrate]: the MIC was 9.03 to 26.6 µM in the assay with M. smegmatis [5] (Mycolicibacterium smegmatis), 9.03 µM against M. smegmatis [5], 37.5 µM in the assay on M. smegmatis [6] (Mycolicibacterium smegmatis) and 7.59 µM in the assay with M. tuberculosis H37Rv.

`NNC(=O)c1ccncc1` [isoniazid]: the “% survival” value with M. smegmatis [3] and in the assay with BCG [4] was < 25% in each case.

As for `O=c1c2ccccc2[se]n1-c1ccccc1` [Ebselen], the MIC amounted to 10.3 µM (≈ 2.82 µg/mL) against M. smegmatis [5] (Mycolicibacterium smegmatis) and 18.5 µM (≈ 5.08 µg/mL) against M. tuberculosis H37Rv. This compound gave a half-maximal inhibitory concentration (IC50) in the assay on HepG2 cells of 45 µM.

In the case of `[H]/N=C(\N/C(=N/[H])NCCCCCCNC(=N)NC(=N)Nc1ccc(Cl)cc1)Nc1ccc(Cl)cc1` [Chlorhexidine], the MIC was 1.98 µM (≈ 1 µg/mL) against M. smegmatis [5] (Mycolicibacterium smegmatis), 1.95 µM (≈ 0.986 µg/mL) in the assay on M. smegmatis [5] and 16 µM (≈ 8.09 µg/mL) with M. smegmatis [6] (Mycolicibacterium smegmatis).

In the case of `Cc1cnc(C(=O)NCCc2ccc(S(=O)(=O)NC(=O)NC3CCCCC3)cc2)cn1` [Glipizide], in the assay with BCG [1], the “Liquid MIC” value is 191.10 µM and the MIC is 191 µM (≈ 85.1 µg/mL).

For the compound `CCCCCCCCNC(C)C(O)c1ccc(SC(C)C)cc1` (centres unmarked) [Sulocitidil], the MIC was 87.22 µM (≈ 29.4 µg/mL) against M. smegmatis [5] and 625 µM (≈ 211 µg/mL) with M. smegmatis [6].

Values taken from article PMC6414029, “Utilisation of the Prestwick Chemical Library to identify drugs that inhibit the growth of mycobacteria” (PLoS ONE, 2019).
